From patent publication US8071627B2, “2-pyridinylethylcarboxamide derivatives and their use as fungicides” (Bayer SAS, priority 2003, dated 2011)

How the values were obtained:
Botrytis cinerea = assay: In vivo test on Botrytis cinerea (cucumber grey mould), cucumber plants, preventive spray; settings: 330 ppm; comparison compounds of WO 01/11965
Procedure: (§1) The active ingredient tested is prepared by potter homogenisation in a concentrated suspension type formulation at 100 g/l. This suspension is then diluted with water to obtain the desired active material concentration.
(§2) Cucumber plants (Marketer variety) in starter cups, sown on a 50/50 peat soil-pozzolana substrate and grown at 18-20° C., are treated at the cotyledon Z11 stage by spraying with the aqueous suspension described above. Plants, used as controls, are treated with an aqueous solution not containing the active material.
After 24 hours, the plants are contaminated by depositing drops of an aqueous suspension of Botrytis cinerea spores (150,000 spores per ml) on upper surface of the leaves. The spores are collected from a 15-day-old culture and are suspended in a nutrient solution-composed of: • 20 g/L of gelatin • 50 g/L of cane sugar • 2 g/L of NH4NO3 • 1 g/L of KH2PO4
The contaminated cucumber plants are settled for 5/7 days in a climatic room at 15-11° C. (day/night) and at 80% relative humidity.
Grading is carried out 5/7 days after the contamination, in comparison with the control plants.

Alternaria brassicae = assay: In vivo test on Alternaria brassicae (leaf spot of crucifers), radish plants, preventive spray; settings: 330 ppm; comparison compounds of WO 01/11965
Procedure: as §1
Radish plants (Pernot variety) in starter cups, sown on a 50/50 peat soil-pozzolana substrate and grown at 18-20° C., are treated at the cotyledon stage by spraying with the aqueous suspension described above.
Plants, used as controls, are treated with an aqueous solution not containing the active material.
After 24 hours, the plants are contaminated by spraying them with an aqueous suspension of Alternaria brassicae spores (40,000 spores per cm^3). The spores are collected from a 12-13-day-old culture.
The contaminated radish plants are incubated for 6-7 days at about 18° C., under a humid atmosphere.
Grading is carried out 6 to 7 days after the contamination, in comparison with the control plants.

Peronospora brassicae = assay: Test on Peronospora brassicae, cabbage plants, preventive spray; format: in vivo; settings: 330 ppm; cabbage plants (Eminence variety); sprayed 24 hours before contamination; grading 5 days after contamination vs control plants
Procedure: as §1
as §2, with “Cabbage” for “Cucumber”, “(Eminence” for “(Marketer”, “cotyledon” for “cotyledon Z11”
After 24 hours, the plants are contaminated by spraying them with an aqueous suspension of Peronospora brassicae spores (50,000 spores per ml). The spores are collected from infected plant
The contaminated cabbage plants are incubated for 5 days at 20° C., under a humid atmosphere.
Grading is carried out 5 days after the contamination, in comparison with the control plants.

Peronospora parasitica = assay: Efficacy against Peronospora parasitica (comparison compound); format: in vivo; settings: 330 ppm; comparison compound of WO 01/11965

Row | SMILES | effectiveness on Botrytis cinerea (in words) (Botrytis cinerea) | effectiveness on Alternaria brassicae (in words) (Alternaria brassicae) | protection (good (at least 50%) to total) (Peronospora brassicae) | efficacy against Peronospora parasitica (in words) (Peronospora parasitica)
1 | CCNC(=O)C(Cc1ncc(C(F)(F)F)cc1Cl)NC(=O)c1ccc(Cl)cc1 (stereo not shown) [compound 306, N-{1-ethylcarbamoyl-2-[3-chloro-5-(trifluoromethyl)-2-pyridinyl]ethyl}-4-chlorobenzamide] | zero effectiveness |  |  | 
2 | CNC(=O)C(Cc1ncc(C(F)(F)F)cc1Cl)NC(=O)c1ccc(OC)cc1 (stereo not shown) [compound 315, N-{1-methylcarbamoyl-2-[3-chloro-5-(trifluoromethyl)-2-pyridinyl]ethyl}-4-methoxybenzamide] | zero effectiveness |  |  | 
3 | CCNC(=O)C(Cc1ncc(C(F)(F)F)cc1Cl)NC(=O)c1ccccc1 (stereo not shown) [compound 304, N-{1-ethylcarbamoyl-2-[3-chloro-5-(trifluoromethyl)-2-pyridinyl]-ethyl}-benzamide] | zero effectiveness |  |  | 
4 | CCNC(=O)C(Cc1ncc(C(F)(F)F)cc1Cl)NC(=O)c1cccc([N+](=O)[O-])c1 (stereo not shown) [compound 307, N-{1-ethylcarbamoyl-2-[3-chloro-5-(trifluoromethyl)-2-pyridinyl]ethyl}-3-nitrobenzamide] | zero effectiveness | poor effectiveness |  | 
5 | CCNC(=O)C(Cc1ncc(C(F)(F)F)cc1Cl)NC(=O)c1ccccc1Br (stereo not shown) [compound 310, N-{1-ethylcarbamoyl-2-[3-chloro-5-(trifluoromethyl)-2-pyridinyl]ethyl}-2-bromobenzamide] | zero effectiveness |  |  | 
6 | CC1=C(C(=O)NCC(NC(=O)c2c(Cl)cccc2Cl)c2ncc(C(F)(F)F)cc2Cl)SCCO1 (stereo not shown) [Compound 46] |  |  | at least 50% | 
7 | O=C(Cc1cccs1)NCc1ncc(C(F)(F)F)cc1Cl [compound 101, N-{[3-chloro-5-(trifluoromethyl)-2-pyridinyl]methyl}-5-thienylacetamide] | no efficacy | poor efficacy |  | no efficacy
8 | CNC(=O)C(Cc1ncc(C(F)(F)F)cc1Cl)NC(=O)c1ccc(-c2ccccc2)cc1 (stereo not shown) [compound 316, N-{1-methylcarbamoyl-2-[3-chloro-5-(trifluoromethyl)-2-pyridinyl]-ethyl}-4-phenylbenzamide] | zero effectiveness | poor effectiveness |  | 
9 | CNC(=O)C(Cc1ncc(C(F)(F)F)cc1Cl)NC(=O)c1ccccc1 (stereo not shown) [compound 314, N-{1-methylcarbamoyl-2-[3-chloro-5-(trifluoromethyl)-2-pyridinyl]ethyl}-benzamide] | zero effectiveness |  |  | 
